Test [1] deals with Lipid bilayer. Briefly: Binding affinity to DPPC membrane assessed as change in enthalpy for main transition temperature at 1:10 compound/DPPC molar ratio by differential scanning calorimetric method (reference value: 7.22 kJ/mol).
Test [2] deals with Lipid bilayer. Briefly: Binding affinity to DPPG membrane assessed as pre-transition temperature at 1:10 compound/DPPG molar ratio by differential scanning calorimetric method (reference value: 34.5 degreeC).
Test [3] relates to Lipid bilayer. The test is described as follows: Binding affinity to DPPG membrane assessed as change in enthalpy for pre-transition temperature at 1:10 compound/DPPG molar ratio by differential scanning calorimetric method (reference value: 0.74 KJ/mol).
Test [4] relates to Lipid bilayer. Briefly: Binding affinity to DPPG membrane assessed as main transition temperature at 1:10 compound/DPPG molar ratio by differential scanning calorimetric method (reference value: 40.3 degreeC).
Test [5] deals with Lipid bilayer. The test is described as follows: Binding affinity to DPPC membrane assessed as main transition temperature at 1:10 compound/DPPC molar ratio by differential scanning calorimetric method (reference value: 41.5 degreeC).
The test system of test [6] is Lipid bilayer. The test is described as follows: Binding affinity to DPPG membrane assessed as change in enthalpy for main transition temperature at 1:10 compound/DPPG molar ratio by differential scanning calorimetric method (reference value: 8.7 KJ/mol).

Take `COc1cc(NC(C)CCCNC(=O)/C=C/c2ccc(C(C)C)cc2)c2ncccc2c1` (stereo not given): the figures for the deltaH with Lipid bilayer [1], in the test with Lipid bilayer [3] and with Lipid bilayer [6] were 1.89 kcal/mol, 0.103 kcal/mol and 2.22 kcal/mol, respectively. In addition, the Tm in the test with Lipid bilayer [2] was 32.4 °C; with Lipid bilayer [4], 39 °C; in the test with Lipid bilayer [5] it was 40.1 °C.
For the molecule `COc1cc(NC(C)CCCN)c2ncccc2c1.O=C(O)/C=C/c1ccc(Cl)cc1` (stereo not given), the results for the deltaH in the test on Lipid bilayer [1] and in the test with Lipid bilayer [6] were 2.29 kcal/mol and 2.23 kcal/mol, respectively. For the same molecule, the Tm stood at 38.1 °C in the test on Lipid bilayer [4] and 40.7 °C in the test with Lipid bilayer [5].
Regarding `CC(C)c1ccc(/C=C/C(=O)O)cc1.COc1cc(NC(C)CCCN)c2ncccc2c1` (stereo not given), the deltaH stood at 2.22 kcal/mol in the test on Lipid bilayer [1] and 2.35 kcal/mol in the test on Lipid bilayer [6]. Further, the Tm with Lipid bilayer [4] amounted to 38.3 °C; in the test on Lipid bilayer [5] it was 40.2 °C.
For `COc1cc(NC(C)CCCNC(=O)/C=C/c2ccc(Cl)cc2)c2ncccc2c1` (stereo not given), the values for the deltaH with Lipid bilayer [1], in the test with Lipid bilayer [3] and in the test on Lipid bilayer [6] were 2.05 kcal/mol, 0.143 kcal/mol and 2.46 kcal/mol, respectively. For the same molecule, the Tm with Lipid bilayer [2] was determined as 32.7 °C; in the test on Lipid bilayer [4], 39 °C; with Lipid bilayer [5], 40.1 °C.

The values are drawn from ChEMBL document CHEMBL4052783, “Effects of novel triple-stage antimalarial ionic liquids on lipid membrane models” (Bioorg Med Chem Lett, 2017).
